Test results published in patent US7488730B2, “N-(1,2,3,4-tetrahydronaphthalen-1-yl)-4-phenyl-1-piperazinealkylamide derivatives, and therapeutic use thereof as 5-HT7 receptor ligands” (Universita Degli Studi Di Bari, priority 2005, dated 2009).
Counter-ions that a name gives are not always drawn. No end group written: not given here.

How the values were obtained:
[1] = target: T1, 5-HT1A receptors (Rattus norvegicus, UniProt P19327); settings: for Ki: read-out: Ki, nM 5-HT1A, [3H]-8-OH-DPAT, rat hippocampal membranes
T1 sequence (P19327 1-422): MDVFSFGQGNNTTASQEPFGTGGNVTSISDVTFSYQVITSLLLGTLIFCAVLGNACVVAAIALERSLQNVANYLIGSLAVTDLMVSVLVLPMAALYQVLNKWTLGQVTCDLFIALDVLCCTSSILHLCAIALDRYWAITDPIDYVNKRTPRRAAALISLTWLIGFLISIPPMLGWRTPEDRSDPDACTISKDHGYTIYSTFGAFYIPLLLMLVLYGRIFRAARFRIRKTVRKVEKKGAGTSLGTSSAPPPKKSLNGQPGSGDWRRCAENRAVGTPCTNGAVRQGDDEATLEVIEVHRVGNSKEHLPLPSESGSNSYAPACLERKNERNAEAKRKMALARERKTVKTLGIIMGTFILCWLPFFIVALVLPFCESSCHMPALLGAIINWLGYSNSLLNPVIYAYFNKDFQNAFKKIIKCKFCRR
Experimental: Radioligand Binding Assay at Rat Hippocampal Membranes 5-HT1A Receptors. Binding experiments were performed according to a known method. Rats were killed by decapitation, the brain was quickly removed, and the hippocampus was dissected. […] The homogenate was centrifuged at 48000 g for 15 min at 4° C. The supernatant was discarded, and the pellet was resuspended in 25 mL of buffer, then preincubated for 10 min at 37° C. The homogenate was centrifuged at 48000 g for 15 min at 4° C. The supernatant was discarded, and the final pellet was stored at −80° C. until used. […] For competitive inhibition experiments various concentrations of drugs studied were incubated. […] Samples were incubated at 37° C. for 20 min and then filtered on Whatman GF/B glass microfiber filters.
Statistical Analysis. […] The value for the inhibition constant, Ki, was calculated by using the Cheng-Prusoff equation.

[2] = target: T2, rat cloned 5-HT7 receptor (Rattus norvegicus, UniProt P32305); assay: Radioligand binding assay ([3H]-LSD) at rat cloned 5-HT7Rs; settings: for Ki: [3H]-LSD, rat recombinant 5-HT7R expressed in HEK-293 cells
T2 construct: purchased PerkinElmer-NEN; host or cells: HEK-293
Experimental: Rat recombinant serotonin 5-HT7R expressed in HEK-293 cells were purchased from PerkinElmer-NEN (Betsville, Md., USA).
Radioligand Binding Assay at Rat Cloned 5-HT7Rs. Binding of [^3H]-LSD at rat cloned 5-HT7 receptor was performed according to a known method. In 1 mL of incubation buffer (50 mM Tris, 10 mM MgCl2 and 0.5 mM EDTA, pH 7.4) were suspended 30 μg of membranes, 2.5 nM [^3H]-LSD, the drugs or reference compound (six to nine concentrations). The samples were incubated for 60 min at 37° C. The incubation was stopped by rapid filtration on GF/A glass fiber filters (pre-soaked in 0.5% polyethylenimine for 30 min). The filters were washed with 3 ? 3 mL of ice-cold buffer (50 mM Tris, pH 7.4). Nonspecific binding was determined in the presence of 10 μM 5-CT. Approximately 90% of specific binding was determined under these conditions.

[3] = target: T3, 5-HT2A receptors (Rattus norvegicus, UniProt P14842)
Experimental: (§1) Radioligand Binding Assay at Rat Cortex Membranes 5-HT2A Receptors. […] Rats were killed by decapitation, the brain was quickly removed, and the cortex was dissected. […] The homogenate was centrifuged at 2000 g for 10 min at 4° C. The supernatant was saved, and the pellet was resuspended in 25 mL of buffer. The surnatantes were collected and diluted 1:10 w/w with 10 mM Tris pH 7.4. The homogenate was centrifugated at 35000 g for 15 min at 4° C. The supernatant was discarded, and the final pellet was stored at −80° C. until used. […] For competitive inhibition experiments various concentrations of drugs studied were incubated. […] Samples were incubated at 37° C. for 15 min and then filtered on Whatman GF/B glass microfiber filters.
(§2) Statistical Analysis. […] PRISM® program. The value for the inhibition constant, Ki, was calculated by using the Cheng-Prusoff equation.

[4] = test system: hamsters; assay: Circadian phase shift in hamsters after injection; type: in vivo
Text: This provides evidence that no additional receptor subtype, such as the 5-HT1A receptor or the 5-HT5A receptor, is necessary for this effect.

[5] = test system: isolated guinea-pig ileum; assay: Substance P contraction of isolated guinea-pig ileum (concentration-response); settings: 100 nM
Text: Isolated Guinea-Pig Ileum Assay.

[6] = target: T3, 5-HT2A receptors; assay: Radioligand binding assay ([3H]-ketanserin) at rat cortex membranes 5-HT2A receptors
Experimental: as §1, §2

[7] = target: 5-HT7 receptor (Cavia porcellus, UniProt P50407); assay: Isolated guinea-pig ileum assay: relaxation of substance P-induced contraction
Sequence of 5-HT7 receptor (P50407 whole entry): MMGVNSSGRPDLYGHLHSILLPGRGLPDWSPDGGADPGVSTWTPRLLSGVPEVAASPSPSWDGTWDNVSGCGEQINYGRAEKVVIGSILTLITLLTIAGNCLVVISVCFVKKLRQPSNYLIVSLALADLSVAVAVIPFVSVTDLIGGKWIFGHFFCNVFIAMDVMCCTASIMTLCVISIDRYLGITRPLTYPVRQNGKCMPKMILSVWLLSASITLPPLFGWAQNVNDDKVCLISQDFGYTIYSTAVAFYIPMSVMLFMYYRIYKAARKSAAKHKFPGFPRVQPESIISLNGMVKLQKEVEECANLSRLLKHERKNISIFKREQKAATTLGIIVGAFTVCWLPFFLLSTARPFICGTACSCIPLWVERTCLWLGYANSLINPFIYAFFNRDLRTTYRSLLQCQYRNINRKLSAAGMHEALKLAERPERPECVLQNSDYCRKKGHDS
Experimental: Isolated Guinea-Pig Ileum Assay. Guinea-pigs were anesthetized and then decapitated and the proximal ileum removed. […] Changes in tension of the tissue were recorded by Fort 10 Original WPI isometric transducer (2Biological Instruments, Italy) connected to a PowerLab/400 workstation. […] Tested compounds were added 3 min before substance P addition.
The isolated guinea pig ileum was equilibrated for 75 min with antagonist before constructing concentration-response curves of tested compounds.
Tissue responses were recorded as gram changes in isometric tension and expressed as percentage of reduction in the height of the contraction.
Agonist potencies, expressed as EC50, were obtained from non-linear iterative curve fitting by [sequence] PRISM®.

T2 sequence (P32305 whole entry): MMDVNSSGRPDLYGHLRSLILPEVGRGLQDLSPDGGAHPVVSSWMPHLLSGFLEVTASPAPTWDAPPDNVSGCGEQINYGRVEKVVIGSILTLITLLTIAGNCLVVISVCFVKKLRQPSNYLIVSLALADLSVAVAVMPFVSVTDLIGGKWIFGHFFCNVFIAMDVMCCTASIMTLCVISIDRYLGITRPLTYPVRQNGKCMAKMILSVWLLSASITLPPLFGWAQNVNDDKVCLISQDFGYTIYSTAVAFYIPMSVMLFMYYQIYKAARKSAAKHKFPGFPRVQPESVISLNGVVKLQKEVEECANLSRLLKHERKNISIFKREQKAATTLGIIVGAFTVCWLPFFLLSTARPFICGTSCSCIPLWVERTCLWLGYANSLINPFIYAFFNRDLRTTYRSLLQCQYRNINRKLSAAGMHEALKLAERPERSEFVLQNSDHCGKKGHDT
T3 sequence (P14842 whole entry): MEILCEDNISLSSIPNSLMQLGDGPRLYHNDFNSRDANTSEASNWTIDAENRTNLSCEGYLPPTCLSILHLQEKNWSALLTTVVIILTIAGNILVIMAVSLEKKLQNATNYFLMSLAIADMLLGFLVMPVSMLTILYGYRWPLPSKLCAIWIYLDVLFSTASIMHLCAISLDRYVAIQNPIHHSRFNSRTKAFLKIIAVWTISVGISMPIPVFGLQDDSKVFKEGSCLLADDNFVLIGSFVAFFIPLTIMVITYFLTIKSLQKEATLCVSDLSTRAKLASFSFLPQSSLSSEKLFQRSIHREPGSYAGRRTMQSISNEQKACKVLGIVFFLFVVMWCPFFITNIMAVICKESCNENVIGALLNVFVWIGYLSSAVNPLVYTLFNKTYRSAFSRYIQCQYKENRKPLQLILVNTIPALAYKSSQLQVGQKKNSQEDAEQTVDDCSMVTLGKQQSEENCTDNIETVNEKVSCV

CS(=O)(=O)c1ccccc1N1CCN(CCCCCC(=O)NC2CCCc3ccccc32)CC1 (centres unmarked) [Compound 45]
Ki [1]: 3120 ± 260 nM | Ki [2]: 298 ± 16 nM | 5-HT2A, percentage in parentheses after >4000 [3]: 38%

CC1CCN(CC[C@H]2CCCN2S(=O)(=O)c2cccc(O)c2)CC1 [SB-26770-A, reference compound]
effect on phase shifts caused by compound 44 ([4]; microinjection into the dorsal raphe before compound 44, relative to vehicle pretreatment): significantly block phase shifts

substance P: contracting agent of the guinea-pig ileum assay, purchased from Tocris Cookson (RPKPQQFFGLM; ends and bridges not checked; UniProt P20366 58-68, looked up)
contraction, % of maximum contraction [5]: 80%

COc1ccc2c(c1)C(NC(=O)CCCCN1CCN(c3ccccc3OC)CC1)CCC2 (centres unmarked) (as salt: HCl) (hydrate or solvate) [Compound 21]
melting point: 187 to 188 °C

COc1ccccc1N1CCN(CCCCC(=O)NC2CCCc3ccccc32)CC1 (centres unmarked) (as salt: HCl) (hydrate or solvate) [Compound 27, 4-(2-Methoxyphenyl)-N-(1,2,3,4-tetrahydronaphthalen-1-yl)-1-piperazinepentanamide]
melting point: 199 to 200 °C

NC(=O)c1ccccc1N1CCN(CCCCCC(=O)NC2CCCc3ccccc32)CC1 (centres unmarked) [Compound 43]
Ki [1]: 494 ± 35 nM | Ki [2]: 229 ± 12 nM | 5-HT2A, percentage in parentheses after >4000 [3]: 9%

CSc1ccccc1N1CCN(CCCCCC(=O)NC2CCCc3ccccc32)CC1 (centres unmarked) [Compound 44, 4-(2-Methylthiophenyl)-N-(1,2,3,4-tetrahydronaphthalen-1-yl)-1-piperazinehexanamide]
circadian phase shift ([4]; microinjection into the dorsal raphe): cause phase shift advances | selectivity over 5-HT1A receptors ([1]; 5-HT7R versus 5-HT1A): 200 fold | Ki [1]: 52.7 ± 3.2 nM | 5-HT7R affinity (in words) [2]: high affinity | Ki [2]: 0.22 nM | selectivity over 5-HT2A receptors ([6]; 5-HT7R versus 5-HT2A): > 1000 fold | Ki ([6]; read-out: Ki, nM 5-HT2A, [3H]-ketanserin, rat cortex membranes): 326 ± 35 nM | EC50 [7]: 2560 nM | PA2 (vs SB-269970) ([7]; in the presence of antagonist SB-269970 (0.1 μM-3 μM)): 7.70 ± 0.80 | 5-HT7 intrinsic activity (in words) ([7]; isolated guinea-pig ileum): Full agonists | Emax ([7]; read-out: Maximal Effect %): 100% | Schild plot ([7]; vs SB-269970, p value in parentheses): 0.9 (p < 0.0001)

COc1ccccc1N1CCN(CCCC(=O)NC2CCCc3cccc(OC)c32)CC1 (centres unmarked) (as salt: HCl) [Compound 23, N-(8-Methoxy-1,2,3,4-tetrahydronaphthalen-1-yl)4-(2-methoxyphenyl)-1-piperazinebutanamide]
melting point: 131 to 133 °C
